The values that follow come from patent US4522946A, “Dioxy hexahydrobenzo[6,7]cyclohepta[1,2,3-de]isoquinoline derivatives useful as neuroleptic agents” (Ayerst, McKenna & Harrison, Inc., priority 1983, dated 1985).

Counter-ions that a name gives are not always drawn.

The subject of data set [1] is conditioned avoidance response. The experiment in a line: conditioned avoidance response test (CAR), neuroleptic action. It counts as in vivo. The conditions noted are these: intraperitoneal, mg per kg body weight; for ED50: ip, read-out: CAR, ED50 (dose which caused a 50% failure in avoidance response).
The test system of data set [2] is tremorine-induced tremors in mice. The data set can be described thus: antagonism of tremorine-induced tremors (ITIT), lack of cataleptic activity. The conditions noted are these: intraperitoneal, mg per kg body weight; for ED50: Mus musculus, ip, read-out: ITIT, ED50 (dose which caused a 50% inhibition of tremorine induced tremors). In kind it is in vivo.
For data set [3] the following is noted: Sayers and Amsler 1977; cited from earlier work.

In the case of `Br.CC[C@H]1c2c(O)c(O)cc3c2[C@H](CN1C)c1ccccc1CC3` (relative stereo) [Example 23, (3,12b-trans)-3-ethyl-2-methyl-1,2,3,7,8,12b-hexahydrobenzo[6,7]cyclohepta[1,2,3-de]isoquinoline-4,5-diol hydrobromide], in data set [1], the “CAR, ED50 (dose which caused a 50% failure in avoidance response)” value is 1.5 ± 0.4 mg/kg, i.p. Also, in data set [2], the “ITIT, ED50 (dose which caused a 50% inhibition of tremorine induced tremors)” value was 18 ± 7.6 mg/kg, i.p.

As for `CC[C@H]1c2cc(O)c(O)c3c2[C@@H](CN1C)c1ccccc1CC3` (relative stereo) [Example 32, (3,12b-trans)-3-ethyl-2-methyl-1,2,3,7,8,12b-hexahydrobenzo[6,7]-cyclohepta[1,2,3-de]isoquinoline-5,6-diol hydrobromide], the results for the ED50 in data set [1] and in data set [2] were 4.2 ± 0.4 mg/kg and 21 ± 1.6 mg/kg, respectively. Taken in the same sequence, the figures for `CN1C[C@H]2c3ccccc3CCc3c(O)c(O)cc(c32)[C@@H]1Cc1ccccc1` (relative stereo) [Example 33, (3,12b-trans)-2-methyl-3-(phenylmethyl)-1,2,3,7,8,12b-hexahydrobenzo[6,7]-cyclohepta[1,2,3-de]isoquinoline-5,6-diol hydrobromide] were 2 ± 0.2 mg/kg and 9.2 ± 7.2 mg/kg.

Consider `CC[C@H]1c2c(O)c(OC)cc3c2[C@@H](CN1C)c1ccccc1CC3` (relative stereo) [Example 44, (3,12b-trans)-3-ethyl-5-methoxy-2-methyl-1,2,3,7,8,12b-hexahydrobenzo[6,7]-cyclohepta[1,2,3-de]isoquinolin-4-ol], for which the “CAR, ED50 (dose which caused a 50% failure in avoidance response)” value in data set [1] is 3.0 ± 0.8 mg/kg, i.p. The “ITIT, ED50 (dose which caused a 50% inhibition of tremorine induced tremors)” value in data set [2] was 6.8 ± 2.0 mg/kg, i.p. As for `Br.CC1c2c(O)c(O)cc3c2C(CN1C)c1ccccc1CC3` (stereo not drawn) [Example 22, (3,12b-trans)-2,3-dimethyl-1,2,3,7,8,12b-hexahydrobenzo[6,7]cyclohepta[1,2,3-de]isoquinoline-4,5-diol hydrobromide], the “CAR, ED50 (dose which caused a 50% failure in avoidance response)” value in data set [1] is 4.4 ± 2.0 mg/kg, i.p. Further, in data set [2], the “ITIT, ED50 (dose which caused a 50% inhibition of tremorine induced tremors)” value was 13 ± 10.4 mg/kg, i.p. Take `Br.CCCC1c2c(O)c(O)cc3c2C(CN1C)c1ccccc1CC3` (stereo not drawn) [Example 24, (3,12b-trans)-2-methyl-3-propyl-1,2,3,7,8,12b-hexahydrobenzo[6,7]cyclohepta[1,2,3-de]isoquinoline-4,5-diol hydrobromide]: the “CAR, ED50 (dose which caused a 50% failure in avoidance response)” value in data set [1] is 4.4 ± 1.4 mg/kg, i.p. In data set [2], the “ITIT, ED50 (dose which caused a 50% inhibition of tremorine induced tremors)” value is listed as 11 ± 4.3 mg/kg, i.p.

As for `Br.CC(C)C1c2c(O)c(O)cc3c2C(CN1C)c1ccccc1CC3` (stereo not drawn) [Example 25, (3,12b-trans)-2-methyl-3-(1-methylethyl)-1,2,3,7,8,12b-hexahydrobenzo[6,7]cyclohepta[1,2,3-de]isoquinoline-4,5-diol hydrobromide], in data set [1], the “CAR, ED50 (dose which caused a 50% failure in avoidance response)” value was 2.4 ± 0.6 mg/kg, i.p. The “ITIT, ED50 (dose which caused a 50% inhibition of tremorine induced tremors)” value in data set [2] is given as 17.5 ± 6.0 mg/kg, i.p. Turning to `Br.CN1CC2c3ccccc3CCc3cc(O)c(O)c(c32)C1Cc1ccccc1` (stereo not drawn) [Example 26, (3,12b-trans)-2-metyl-3-(phenylmethyl)-1,2,3,7,8,12b-hexahydrobenzo[6,7]cyclohepta[1,2,3-de]isoquinoline-4,5-diol hydrobromide], the “CAR, ED50 (dose which caused a 50% failure in avoidance response)” value in data set [1] is reported as 1.6 ± 0.3 mg/kg, i.p. Besides, in data set [2], the “ITIT, ED50 (dose which caused a 50% inhibition of tremorine induced tremors)” value is 22 ± 5.7 mg/kg, i.p. As for `COc1cc2c3c(c1O)C(Cc1ccccc1)N(C)CC3c1ccccc1CC2` (stereo not drawn) [Example 37, (3,12b-trans)-5-Methoxy-2-methyl-3-(phenylmethyl)-1,2,3,7,8,12b-hexahydrobenzo[6,7]-cyclohepta[1,2,3-de]isoquinolin-4-ol], the “CAR, ED50 (dose which caused a 50% failure in avoidance response)” value in data set [1] is 5.4 ± 1.8 mg/kg, i.p. Besides, in data set [2], the “ITIT, ED50 (dose which caused a 50% inhibition of tremorine induced tremors)” value is 8.2 ± 2.4 mg/kg, i.p. `CN1CCN(C2=Nc3cc(Cl)ccc3Nc3ccccc32)CC1` [clozapine]: in data set [3], the “neuroleptic action without the extrapyramidal side effects (in words)” value was “have shown this unusual pharmacological profile”.
